Drawing on patent US11178871B2, “Herbicidal pyrimidine compounds” (BASF SE, priority 2016, dated 2021), this text covers herbicidal activity for 9 molecules.

Assay type in all cases: in vivo
The test system of assay [1] is Abutilon theophrasti. Description: greenhouse test, pre-emergence treatment, ABUTH. To be noted: 2000 g/ha. The source says: (§1) The culture containers used were plastic flowerpots containing loamy sand with approximately 3.0% of humus as the substrate. The seeds of the test plants were sown separately for each species.
(§2) For the pre-emergence treatment, the active ingredients, which had been suspended or emulsified in water, were applied directly after sowing by means of finely distributing nozzles. The containers were irrigated gently to promote germination and growth and subsequently covered with transparent plastic hoods until the plants had rooted. This cover caused uniform germination of the test plants, unless this had been impaired by the active ingredients.
(§3) Depending on the species, the plants were kept at 10-25° C. or 20-35° C., respectively.
(§4) The test period extended over 2 to 4 weeks. During this time, the plants were tended, and their response to the individual treatments was evaluated.
(§5) Evaluation was carried out using a scale from 0 to 100. 100 means no emergence of the plants, or complete destruction of at least the aerial moieties, and 0 means no damage, or normal course of growth. A good herbicidal activity is given at values of at least 70 and a very good herbicidal activity is given at values of at least 85.
(§6) The plants used in the greenhouse experiments were of the following species: […]

Assay [2] deals with Echinocloa crus-galli. Description: greenhouse test, post-emergence treatment, ECHCG. The conditions noted are these: post-emergence. In short, it runs like this:
(§7)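 Plants grown in loamy sand (~3.0% humus) to 3–15 cm height, then sprayed post-emergence with active ingredient suspended or emulsified in water. Kept at 10–25 °C or 20–35 °C by species for 2–4 weeks; damage scored visually 0–100 (100 = complete destruction of aerial parts, 0 = normal growth).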

Assay [3] deals with Echinocloa crus-galli. Nature of the assay: greenhouse test, pre-emergence treatment, ECHCG. An outline of the steps: (§8)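 Damage scored visually on a 0-100 scale (100 = no emergence or complete destruction of aerial parts, 0 = normal growth) after 2 to 4 weeks. Treatment was applied pre-emergence as an aqueous suspension or emulsion immediately after sowing in loamy sand (approx. 3.0% humus).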

Assay [4] deals with Apera spica-venti. Description: greenhouse test, pre-emergence treatment, APESV. In short, it runs like this:
as §8

Another assay relates to Avena fatua. Nature of the assay: greenhouse test, post-emergence treatment, AVEFA. In short, it runs like this:
as §7

In assay [5] the test system is Alopecurus myosuroides. Description: greenhouse test, post-emergence treatment, ALOMY. To be noted: post-emergence. In short, it runs like this: as §7
In assay [6] the test system is Alopecurus myosuroides. Description: greenhouse test, pre-emergence treatment, ALOMY. The conditions noted are these: 2000 g/ha.
Excerpt: as §1, §2, §3, §4, §5, §6

The test system of assay [7] is Apera spica-venti. Nature of the assay: greenhouse test, post-emergence treatment, APESV. To be noted: post-emergence, 2000 g/ha.
Excerpt: as §1
(§9) For the post-emergence treatment, the test plants were first grown to a height of 3 to 15 cm, depending on the plant habit, and only then treated with the active ingredients which had been suspended or emulsified in water. For this purpose, the test plants were either sown directly and grown in the same containers, or they were first grown separately as seedlings and transplanted into the test containers a few days prior to treatment.
as §3, §4, §5, §6

The test system of another assay is Lolium multiflorum. Nature of the assay: greenhouse test, post-emergence treatment, LOLMU. The conditions noted are these: 500 g/ha.
Excerpt: as §1, §9, §3, §4, §5, §6

The next assay deals with Poa annua. Nature of the assay: greenhouse test, pre-emergence treatment, POAAN.
Excerpt: as §1, §2, §3, §4, §5, §6

The subject of a further assay is Agrostis stolonifera. Nature of the assay: greenhouse test, post-emergence treatment, AGSST.
Excerpt: as §1, §9, §3, §4, §5, §6

The subject of assay [8] is Abutilon theophrasti. Description: greenhouse test, post-emergence treatment, ABUTH. To be noted: 2000 g/ha. An outline of the steps: as §7
The test system of a further assay is Chenopodium album. Description: greenhouse test, post-emergence treatment, CHEAL. To be noted: 250 g/ha.
Excerpt: as §1, §9, §3, §4, §5, §6

Another assay deals with Amaranthus retroflexus. Description: greenhouse test, post-emergence treatment, AMARE. An outline of the steps:
as §7

Another assay relates to Matricaria inodora. Nature of the assay: greenhouse test, pre-emergence treatment, MATIN. The conditions noted are these: 2000 g/ha.
Excerpt: as §1, §2, §3, §4, §5, §6

The subject of another assay is Polygonum convolvulus. Nature of the assay: greenhouse test, post-emergence treatment, POLCO. To be noted: 500 g/ha. In short, it runs like this:
as §7

For the next assay, the system named is Setaria viridis. Nature of the assay: greenhouse test, pre-emergence treatment, SETVI. The conditions noted are these: 2000 g/ha.
Excerpt: as §1, §2, §3, §4, §5, §6

`Clc1ccccc1-c1cnc(C2CC2)nc1-c1nc2ccccc2[nH]1` [Ex. 297]: the herbicidal activity entry is reported as “good (A good herbicidal activity is given at values of at least 70)” with Abutilon theophrasti [1]; “very good (a very good herbicidal activity is given at values of at least 85)” in the assay with Echinocloa crus-galli [2] (2000 g/ha); “good (A good herbicidal activity is given at values of at least 70)” in the assay on Echinocloa crus-galli [3] (2000 g/ha); “very good (a very good herbicidal activity is given at values of at least 85)” with Apera spica-venti [4] (2000 g/ha); “very good (a very good herbicidal activity is given at values of at least 85)” with Avena fatua (2000 g/ha); “very good (a very good herbicidal activity is given at values of at least 85)” with Alopecurus myosuroides [5] (2000 g/ha).
Take `CC(O)Cc1nc(C2CC2)ncc1-c1ccccc1Cl` (centres unmarked) [Ex. 105]: the herbicidal activity result with Echinocloa crus-galli [2] (2000 g/ha), in the assay on Echinocloa crus-galli [3] (2000 g/ha), with Alopecurus myosuroides [6] and in the assay on Apera spica-venti [7] was “very good (a very good herbicidal activity is given at values of at least 85)” each time.
In the case of `Cc1nc(C)c(-c2nc(C3CC3)ncc2-c2cc(C(F)F)ccc2Cl)o1` [Ex. 291], the herbicidal activity result is given as “very good (a very good herbicidal activity is given at values of at least 85)” in the assay on Echinocloa crus-galli [3] (500 g/ha); “good (A good herbicidal activity is given at values of at least 70)” in the assay with Lolium multiflorum; “very good (a very good herbicidal activity is given at values of at least 85)” with Apera spica-venti [4] (500 g/ha); “good (A good herbicidal activity is given at values of at least 70)” in the assay with Avena fatua (500 g/ha); “very good (a very good herbicidal activity is given at values of at least 85)” in the assay on Poa annua (500 g/ha); “good (A good herbicidal activity is given at values of at least 70)” in the assay on Alopecurus myosuroides [5] (500 g/ha).
Regarding `C=C(C(=O)OC)c1nc(C2CC2)ncc1-c1ccccc1Cl` [Ex. 221], the herbicidal activity result with Echinocloa crus-galli [2] (2000 g/ha), with Echinocloa crus-galli [3] (2000 g/ha), in the assay with Apera spica-venti [4] (2000 g/ha), with Agrostis stolonifera (2000 g/ha), in the assay with Poa annua (2000 g/ha) and in the assay on Abutilon theophrasti [8] was “very good (a very good herbicidal activity is given at values of at least 85)” throughout.
For `Cc1nc(C)c(-c2nc(C3CC3)ncc2-c2ccccc2Br)o1` [Ex. 265], the herbicidal activity entry in the assay with Chenopodium album was “good (A good herbicidal activity is given at values of at least 70)”; in the assay with Amaranthus retroflexus (250 g/ha) it was “very good (a very good herbicidal activity is given at values of at least 85)”; in the assay with Alopecurus myosuroides [5] (250 g/ha), “good (A good herbicidal activity is given at values of at least 70)”.
As for `Clc1ccccc1-c1cnc(C2CC2)nc1-c1cnco1` [Ex. 260], the herbicidal activity result in the assay with Echinocloa crus-galli [2] (2000 g/ha) is on record as “good (A good herbicidal activity is given at values of at least 70)”; in the assay on Echinocloa crus-galli [3] (2000 g/ha), “very good (a very good herbicidal activity is given at values of at least 85)”; with Apera spica-venti [4] (2000 g/ha) it was “good (A good herbicidal activity is given at values of at least 70)”; in the assay on Avena fatua (2000 g/ha), “good (A good herbicidal activity is given at values of at least 70)”; with Matricaria inodora, “very good (a very good herbicidal activity is given at values of at least 85)”; in the assay with Alopecurus myosuroides [5] (2000 g/ha) it was “very good (a very good herbicidal activity is given at values of at least 85)”.
For `OC(c1cccs1)C(O)c1nc(C2CC2)ncc1-c1ccccc1Cl` (centres unmarked) [Ex. 247], the herbicidal activity entry with Echinocloa crus-galli [3] (500 g/ha), in the assay with Apera spica-venti [4] (500 g/ha), in the assay on Agrostis stolonifera (500 g/ha), with Amaranthus retroflexus (500 g/ha), in the assay with Poa annua (500 g/ha) and in the assay with Alopecurus myosuroides [5] (500 g/ha) was “very good (a very good herbicidal activity is given at values of at least 85)” in each case.
For the molecule `Cc1ccc(-c2nc(C3CC3)ncc2-c2ccccc2Br)o1` [Ex. 121], the herbicidal activity entry in the assay with Echinocloa crus-galli [2] (500 g/ha), in the assay on Lolium multiflorum, in the assay on Polygonum convolvulus and in the assay with Alopecurus myosuroides [5] (500 g/ha) was “very good (a very good herbicidal activity is given at values of at least 85)” in each case.
In the case of `Brc1ccccc1-c1cnc(C2CC2)nc1C1CC1` [Ex. 39], the herbicidal activity entry in the assay with Amaranthus retroflexus (2000 g/ha), in the assay on Setaria viridis and with Abutilon theophrasti [8] was “very good (a very good herbicidal activity is given at values of at least 85)” in each case.
